Test results published in article PMC6768028, “Synthesis, SAR and in vitro therapeutic potentials of thiazolidine-2,4-diones” (Chemistry Central Journal, 2018).
Values after ≈ are worked out from the molar mass of the structure shown.

Assays:
Bacillus subtilis = test: Antimicrobial activity, tube dilution method (MIC); type: cell-based; details: 24 h, read-out: Minimum inhibitory concentration, B. subtilis, tube dilution, 37 ± 1 °C, 24 h
Method: (§1) The in vitro antimicrobial activity of synthesized compounds was done by tube dilution method against Gram-positive bacteria: Staphylococcus aureus, Bacillus subtilis, Gram-negative bacteria: Escherichia coli, Klebsiella pneumonia, Salmonella typhi and fungal: Candida albicans and Aspergillus niger strains using cefadroxil and fluconazole as standard. Dilutions of test and standard compounds were prepared in double strength nutrient broth for bacterial strains and Sabouraud dextrose broth for fungal strains.

Escherichia coli = test: Antimicrobial activity, tube dilution method (MIC); type: cell-based; details: 24 h, read-out: Minimum inhibitory concentration, E. coli, tube dilution, 37 ± 1 °C, 24 h
Method: as §1

Klebsiella pneumonia = test: Antimicrobial activity, tube dilution method (MIC); type: cell-based; details: Klebsiella pneumoniae, 24 h, read-out: Minimum inhibitory concentration, K. pneumonia, tube dilution, 37 ± 1 °C, 24 h
Method: as §1

Salmonella typhi = test: Antimicrobial activity, tube dilution method (MIC); type: cell-based; details: 24 h; for MIC: Salmonella enterica, TYPHI, read-out: Minimum inhibitory concentration, S. typhi
Method: as §1

Staphylococcus aureus = test: Antimicrobial activity, tube dilution method (MIC); type: cell-based; details: 24 h, read-out: Minimum inhibitory concentration, S. aureus, tube dilution, 37 ± 1 °C, 24 h
Method: as §1

Aspergillus niger = test: Antifungal activity, tube dilution method (MIC); type: cell-based; details: 168 h, read-out: Minimum inhibitory concentration, A. niger, tube dilution, 25 ± 1 °C, 7 days
Method: as §1

Candida albicans = test: Antifungal activity, tube dilution method (MIC); type: cell-based; details: 48 h, read-out: Minimum inhibitory concentration, C. albicans, tube dilution, 37 ± 1 °C, 48 h
Method: as §1

[1] = tested on: α-amylase enzyme (diastase); test: Antidiabetic activity: α-amylase inhibitory activity using diastase, colorimetric method; type: biochemical; details: for IC50 (antidiabetic activity, α-amylase): calculated via graph of % inhibition
Method: All the synthesized compounds were evaluated against α-amylase inhibitory activity by using diastase based on colorimetric method. 0.25 g of soluble potato starch was dissolved in 50 ml of 20 mM phosphate buffer by heating for 15 min. 1 mg diastase (amylase enzyme) was mixed in 100 ml of 20 mM phosphate buffer (pH 6.9) to obtain the enzyme solution. Different concentrations of all the synthesized derivatives were prepared by dissolving them in DMSO. […] 1 ml of enzyme solution was mixed with 1 ml of each synthesized derivatives and incubated for 10 min at 25 °C. Then 1 ml of this mixture was mixed with 1 ml of soluble potato starch solution in a tube and incubated for 10 min at 25 °C. Then tubes were closed after adding 1 ml of color reagent and placed into water bath for 15 min at 85 °C. The reaction mixture was removed from water bath after 15 min. After cooling, the reaction mixture was diluted with 9 ml of distilled water and the absorbance was taken at 540 nm in UV spectrophotometer. Blank solution was prepared by replacing the enzyme solution with buffer solution and absorbance was taken. Measurement of control was performed in identical manner by replacing the synthesized derivatives in 1 ml of DMSO.
Percentage inhibition of α-amylase enzyme was calculated by using following formula:1 %Inhibition=ABlank-ASample/ABlank×100

[2] = Antioxidant activity: free radical scavenging method by DPPH assay; details: for % inhibition (DPPH), 25 μg/ml / % inhibition (DPPH), 50 μg/ml / % inhibition (DPPH), 75 μg/ml / % inhibition (DPPH), 100 μg/ml: 30 min, 517 nm; for IC50 (antioxidant activity, DPPH): calculated via graph of % inhibition
Method: The antioxidant activity of the newly synthesized compounds were evaluated spectrophotometrically using free radical scavenging method by DPPH (2,2-diphenyl-1-picrylhydrazyl) assay. The DPPH is a stable free radical with maximal absorption at 517 nm and is reduced to a corresponding hydrazine when it reacting with hydrogen donors. […] DPPH solution (3 μg/ml) was prepared in methanol and DPPH (in 1:1) solution was used for blank reference. Four dilutions of different concentrations (25, 50, 75 and 100 μg/ml) of each synthesized compound and standard (ascorbic acid) were prepared in the methanol and 1 ml of each concentration was added to 1 ml of DPPH solution. The solution mixture was shaken vigorously and kept in dark place for 30 min at room temperature and absorbance was measured by UV at 517 nm. Percentage inhibition of Free radical DPPH was calculated as follows:1 %Inhibition=ABlank-ASample/ABlank×100 where, ABlank: absorbance of the blank reaction, ASample: absorbance of the test compound.

SMILES	MIC (Bacillus subtilis) [mM]	MIC (Escherichia coli) [mM]	MIC (Klebsiella pneumonia) [mM]	MIC (Salmonella typhi) [mM]	MIC (Staphylococcus aureus) [mM]	MIC (Aspergillus niger) [mM]	MIC (Candida albicans) [mM]	% inhibition (α-amylase), 25 μg/ml [1] [%]	% inhibition (α-amylase), 50 μg/ml [1] [%]	% inhibition (α-amylase), 75 μg/ml [1] [%]	% inhibition (α-amylase), 100 μg/ml [1] [%]	IC50 (antidiabetic activity, α-amylase) [1] [mg/L]	% inhibition (DPPH), 25 μg/ml [2] [%]	% inhibition (DPPH), 50 μg/ml [2] [%]	% inhibition (DPPH), 75 μg/ml [2] [%]	% inhibition (DPPH), 100 μg/ml [2] [%]	IC50 (antioxidant activity, DPPH) [2] [mg/L]	melting point [°C]	Minimum inhibitory concentration, S. typhi (Salmonella typhi; tube dilution, 37 ± 1 °C) [μΜ/ml]
CN(C)c1ccc(C=C2SC(=O)NC2=O)cc1 [Compound 6, 5-(4-(Dimethylamino)benzylidene)thiazolidine-2,4-dione]	5 (≈ 1240 µg/mL)	4.99 (≈ 1240 µg/mL)	10.1 (≈ 2500 µg/mL)	5 (≈ 1240 µg/mL)	5 (≈ 1240 µg/mL)	10.1 (≈ 2500 µg/mL)	20.1 (≈ 4990 µg/mL)	33.56	49.45	50.78	97.15	37.35 (≈ 150 µM)	19.54	38.93	62.65	75.82	48.13 (≈ 194 µM)	147 to 150	
O=C1NC(=O)C(=Cc2cccc([N+](=O)[O-])c2)S1 [Compound 7, 5-(3-Nitrobenzylidene)thiazolidine-2,4-dione]	9.9 (≈ 2480 µg/mL)	4.99 (≈ 1250 µg/mL)	4.99 (≈ 1250 µg/mL)	4.99 (≈ 1250 µg/mL)	4.99 (≈ 1250 µg/mL)	9.9 (≈ 2480 µg/mL)	4.99 (≈ 1250 µg/mL)	24.72	35.71	64.87	97.15	56.09 (≈ 224 µM)	20.51	35.61	79.74	86.04	55.23 (≈ 221 µM)	110 to 113	
CCN(CC)c1ccc(/C=C2/SC(=O)NC2=O)cc1 [Compound 8]	4.5 (≈ 1240 µg/mL)	5 (≈ 1380 µg/mL)	4.5 (≈ 1240 µg/mL)	4.5 (≈ 1240 µg/mL)	4.5 (≈ 1240 µg/mL)	4.5 (≈ 1240 µg/mL)	4.5 (≈ 1240 µg/mL)	20.79	39.54	40.89	93.17	56.89 (≈ 206 µM)	26.93	33.78	62.23	65.78	31.15 (≈ 113 µM)	158 to 160	
O=C1NC(=O)C(=Cc2ccc(Br)cc2)S1 [Compound 9, 5-(4-Bromobenzylidene)thiazolidine-2,4-dione]	8.79 (≈ 2500 µg/mL)	8.79 (≈ 2500 µg/mL)	8.79 (≈ 2500 µg/mL)	4.3 (≈ 1220 µg/mL)	4.3 (≈ 1220 µg/mL)	4.3 (≈ 1220 µg/mL)	4.3 (≈ 1220 µg/mL)	24.73	53.78	68.34	89.37	41.67 (≈ 147 µM)	36.83	45.41	71.51	87.34	27.66 (≈ 97.3 µM)	150 to 152	
COc1cc(C=C2SC(=O)NC2=O)cc(OC)c1OC [Compound 10, 5-(3,4,5-Trimethoxybenzylidene)thiazolidine-2,4-dione]		8.4 (≈ 2480 µg/mL)	4.2 (≈ 1240 µg/mL)	4.2 (≈ 1240 µg/mL)				29.34	43.98	63.36	98.14	47.49 (≈ 161 µM)	28.61	39.67	59.75	86.70	43.44 (≈ 147 µM)	210 to 213	4.20
O=C1NC(=O)/C(=C\c2cccc(Cl)c2)S1 [Compound 14, 5-(3-Chlorobenzylidene)thiazolidiine-2,4-dione]																		137 to 140	
COc1ccccc1C=C1SC(=O)NC1=O [Compound 15, 5-(2-Methoxybenzylidene)thiazolidine-2,4-dione]	5.31 (≈ 1250 µg/mL)	5.31 (≈ 1250 µg/mL)		5.31 (≈ 1250 µg/mL)	5.31 (≈ 1250 µg/mL)	5.31 (≈ 1250 µg/mL)	5.31 (≈ 1250 µg/mL)	32.59	51.78	66.98	81.30	22.35 (≈ 95 µM)	33.51	43.98	77.21	98.67	43.25 (≈ 184 µM)	147 to 150	
COc1cc(C=C2SC(=O)NC2=O)ccc1O [Compound 18, 5-(4-Hydroxy-3-methoxybenzylidene)thiazolidine-2,4-dione]	4.9 (≈ 1230 µg/mL)	4.9 (≈ 1230 µg/mL)	9.9 (≈ 2490 µg/mL)	4.9 (≈ 1230 µg/mL)	4.9 (≈ 1230 µg/mL)	4.9 (≈ 1230 µg/mL)	4.9 (≈ 1230 µg/mL)	18.64	45.85	65.11	95.98	56.39 (≈ 224 µM)	36.94	43.52	60.12	93.03	33.51 (≈ 133 µM)		
COc1ccc(C=C2SC(=O)NC2=O)cc1OC [Compound 19, 5-(3,4-Dimethoxybenzylidene)thiazolidine-2,4-dione]	4.7 (≈ 1250 µg/mL)	4.7 (≈ 1250 µg/mL)	9.4 (≈ 2490 µg/mL)	4.7 (≈ 1250 µg/mL)	4.7 (≈ 1250 µg/mL)	4.7 (≈ 1250 µg/mL)	4.7 (≈ 1250 µg/mL)	29.33	47.77	58.34	90.86	40.01 (≈ 151 µM)	28.64	39.67	73.41	90.05	46.03 (≈ 174 µM)		
O=C1NC(=O)C(=C/C=C/c2ccccc2)S1 [Compound 20, 5-((E)-3-Phenylallylidene)thiazolidine-2,4-dione]	5.4 (≈ 1250 µg/mL)	5.4 (≈ 1250 µg/mL)	10.8 (≈ 2500 µg/mL)	5.4 (≈ 1250 µg/mL)	5.4 (≈ 1250 µg/mL)	5.4 (≈ 1250 µg/mL)	5.4 (≈ 1250 µg/mL)	34.73	45.98	68.34	88.45	31.62 (≈ 137 µM)	25.64	46.93	69.55	87.97	43.89 (≈ 190 µM)		
